Measurements taken from US12600732B2, “Bifunctional compounds for degrading BTK via ubiquitin proteosome pathway” (NURIX THERAPEUTICS, INC., priority 2019, dated 2026).
“And” between values parts separate entries of the source, which are not always exact repeats. Equal values may be shown once.

Assays:
primary human T cells [1] = assay: T cell activation assay, CD25 and CD69 staining (flow cytometry); type: cell-based; conditions: for CD25 Staining Anti-CD3/Anti-CD28 Stimulation / CD69 Staining Anti-CD3/Anti-CD28 Stimulation: fold-change of response relative to baseline; for expression of CD25 and CD69 compared to baseline (anti-CD3/anti-CD28 stimulation alone): primary human T cells
Procedure: (§1) This example evaluates whether CTMs with IMiD activity affect T cell activation. […] These assays were performed to assess whether BTK CTMs with and without IMiD activity affected activation of primary human T cells after stimulation of the T cell receptor with anti-CD3/ati-CD28 stimulation. T cell activation was measured by IL-2 secretion (ELISA assay) and upregulation of activation markers CD25 and CD69 on the surface of T cells (flow cytometry). Data are presented as the fold-change of response relative to baseline (stimulation with anti-CD3/anti-CD28 stimulation in the absence of compound).

primary human T cells [2] = assay: T cell activation assay, IL-2 secretion (ELISA); type: cell-based; conditions: for IL-2 secretion compared to baseline (anti-CD3/anti-CD28 stimulation alone): primary human T cells
Procedure: as §1

BTK = target: T1, BTK (Mus musculus, UniProt P35991); assay: In vivo degradation of BTK in mouse PD experiments with oral dosing; conditions: 6 h
T1 construct: from tissue; host or cells: mouse blood B cells / splenocytes (CD-1 or BALB/c)
Procedure: A method of determining the pharmacodynamic profile of BTK degraders was performed by dosing either CD-1 or BALB/c mice with CTM. The CTM was prepared in a suitable formulation and was administered via oral gavage (PO) at a suitable dose level and frequency as informed by prior pharmacokinetic and tolerability studies. Following administration of CTM, BTK levels in blood or splenocytes are measured using flow cytometry or HTRF. For assessment of BTK levels via flow cytometry, either whole blood or splenocytes were first treated with ACK RBC lysis buffer to facilitate lysing of red blood cells. Remaining cells were then stained with fluorophore-conjugated antibodies against CD45, TCR beta and CD45R (B220). Cell pellets were washed with 1×PBS, fixed, and permeabilized for twenty-four hours with Foxp3/Transcription Factor Fixation/Permeabilization Kit. Cells were then stained intracellularly with unconjugated BTK antibody and detected with a fluorophore-conjugated secondary antibody. Stained cells were run on an Attune N×T Acoustic Focusing Flow Cytometer (Thermo-Fisher A29004), and data was analyzed using FlowJo (v10.5.3) and GraphPad Prism (v7.00) software. Lymphocytes were gated for B cells defined as CD45+ TCR beta−B220+ and T cells as CD45+ TCR beta+B220−. The BTK geometric mean fluorescence intensity (MFI) was calculated for B and T cells. Percent BTK degradation for each compound-treated sample was calculated using the equation described below: % Degradation=100*(Treated sample B cell BTK MFI-treated sample T cell BTK MFI)/Vehicle B cell BTK MFI-Vehicle T cell BTK MFI)
This example evaluates in vivo activity of BTK CTMs via a direct mouse PD measurement following oral dosing
Screens were completed at 90 mg/kg for six hours, and then changed to lower doses/longer time points after seeing strong BTK degradation activity with an initial set of compounds. This assay was useful in selecting compounds for in vivo efficacy experiments.

TMD8 cells = assay: Cell viability assay (CellTiter-Glo), TMD8 cells; conditions: for EC50: Homo sapiens, TMD8, 72 h; for EMAX (% viable cells): TMD8 cells, treatment time 72 h
TMD8 C481S cells = assay: Cell viability assay (CellTiter-Glo), TMD8 C481S cells; conditions: for EC50: Homo sapiens, TMD8, 72 h; for EMAX (% viable cells): TMD8 C481S cells, treatment time 72 h
[3] = 1.4 nM, fold-change of response relative to baseline
[4] = 37 nM, fold-change of response relative to baseline
[5] = 333 nM, fold-change of response relative to baseline (stimulation without compound)

T1 sequence (P35991 whole entry): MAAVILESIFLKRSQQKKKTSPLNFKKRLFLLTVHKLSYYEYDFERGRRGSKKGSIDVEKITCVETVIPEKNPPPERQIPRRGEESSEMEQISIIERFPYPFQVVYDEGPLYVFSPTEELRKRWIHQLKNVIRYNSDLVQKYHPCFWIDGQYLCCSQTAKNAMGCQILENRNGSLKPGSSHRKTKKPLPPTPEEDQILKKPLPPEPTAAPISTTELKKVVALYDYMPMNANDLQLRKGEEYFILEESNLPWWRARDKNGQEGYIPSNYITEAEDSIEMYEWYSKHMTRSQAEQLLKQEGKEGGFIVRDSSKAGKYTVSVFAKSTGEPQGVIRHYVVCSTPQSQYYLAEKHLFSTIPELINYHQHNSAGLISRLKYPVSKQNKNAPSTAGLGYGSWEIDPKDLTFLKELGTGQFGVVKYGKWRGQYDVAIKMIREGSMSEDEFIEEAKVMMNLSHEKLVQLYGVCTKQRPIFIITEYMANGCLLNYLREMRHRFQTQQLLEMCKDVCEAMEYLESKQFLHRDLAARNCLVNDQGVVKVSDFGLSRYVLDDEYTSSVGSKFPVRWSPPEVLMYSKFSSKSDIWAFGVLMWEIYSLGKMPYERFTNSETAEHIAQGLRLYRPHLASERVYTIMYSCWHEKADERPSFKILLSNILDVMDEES

| % BTK Remaining (BTK; oral dose 1 mg/kg, splenocytes, HTRF) [%] | % BTK Remaining (BTK; oral dose 90 mg/kg, splenocytes, HTRF) [%] | % BTK Remaining (BTK; oral dose 1 mg/kg, splenocytes, HTRF, 1 mg/kg) | % BTK Remaining (BTK; oral dose 3 mg/kg, splenocytes, HTRF) [%] | % BTK Remaining (BTK; oral dose 3 mg/kg, blood, flow cytometry) [%] | SMILES | CD25 Staining Anti-CD3/Anti-CD28 Stimulation (primary human T cells [1]; 1.4 nM) | CD69 Staining Anti-CD3/Anti-CD28 Stimulation (primary human T cells [1]; 1.4 nM) | CD25 Staining Anti-CD3/Anti-CD28 Stimulation (primary human T cells [1]; 37 nM) | CD69 Staining Anti-CD3/Anti-CD28 Stimulation (primary human T cells [1]; 37 nM) | CD25 Staining Anti-CD3/Anti-CD28 Stimulation (primary human T cells [1]; 333 nM) | CD69 Staining Anti-CD3/Anti-CD28 Stimulation (primary human T cells [1]; 333 nM) | IL-2 Secretion Anti-CD3/Anti-CD28 Stimulation (primary human T cells [2]; [3]) | IL-2 Secretion Anti-CD3/Anti-CD28 Stimulation (primary human T cells [2]; [4]) | IL-2 Secretion Anti-CD3/Anti-CD28 Stimulation (primary human T cells [2]; [5]) | expression of CD25 and CD69 compared to baseline (anti-CD3/anti-CD28 stimulation alone) (primary human T cells [1]) | IL-2 secretion compared to baseline (anti-CD3/anti-CD28 stimulation alone) (primary human T cells [2]) | EC50 (TMD8 cells) [nM] | EMAX (% viable cells) (TMD8 cells) [%] | EC50 (TMD8 C481S cells) [nM] | EMAX (% viable cells) (TMD8 C481S cells) [%] |
| --- | --- | --- | --- | --- | --- | --- | --- | --- | --- | --- | --- | --- | --- | --- | --- | --- | --- | --- | --- | --- |
| – | – | – | – | – | CN1CCN([C@H]2CCCN(c3cnc(C(N)=O)c(Nc4ccc5c(c4)CCN(CC4CN(c6ccc7c(c6)C(=O)N(C6CCC(=O)NC6=O)C7=O)C4)C5)n3)C2)C1=O (some centres unmarked) [Compound 92] | 1.14 | 1.09 | 1.21 | 1.29 | 1.06 | 1.35 | 1.53 | 2.19 | 1.63 | – | – | – | – | – | – |
| – | – | – | – | – | CN1CCN([C@@H]2CCCN(c3cnc(C(N)=O)c(Nc4ccc(OCCCNc5ccc6c(c5)C(=O)N(C5CCC(=O)NC5=O)C6=O)cc4)n3)C2)C1=O (some centres unmarked) [Compound 64] | 1.17 | 1.14 | 1.04 | 1.14 | 0.34 | 0.64 | 1.28 | 1.80 | 1.48 | – | – | – | – | – | – |
| – | – | – | – | – | Nc1cccc2c1C(=O)N(C1CCC(=O)NC1=O)C2=O (centres unmarked) [Pomalidomide, pomalidomide, reference compound] | 1.03 | 1.01 | 1.39 | 1.33 | 1.63 | 1.77 | 1.31 | 4.80 | 5.50 | increase expression | induce IL-2 secretion | – | – | – | – |
| – | – | – | – | – | CN1CCN([C@@H]2CCCN(c3cnc(C(N)=O)c(Nc4ccc(C5CCN(CCCNc6cccc7c6C(=O)N(C6CCC(=O)NC6=O)C7=O)CC5)cc4)n3)C2)C1=O (some centres unmarked) [Compound 155] | 1.31 | 1.25 | 1.46 | 1.34 | 1.21 | 1.20 | 1.62 | 3.13 | 3.11 | – | – | – | – | – | – |
| 75 | – | – | – | – | CN1CCN([C@@H]2CCCN(c3cnc(C(N)=O)c(Nc4ccc(N5CC6(C5)CN(c5ccc7c(c5)C(=O)N(C5CCC(=O)NC5=O)C7=O)C6)cc4)n3)C2)C1=O (stereo partly drawn) [Compound 34, 3-((4-(6-(2-(2,6-dioxopiperidin-3-yl)-1,3-dioxoisoindolin-5-yl)-2,6-diazaspiro[3.3]heptan-2-yl)phenyl)amino)-5-((R)-3-(3-methyl-2-oxoimidazolidin-1-yl)piperidin-1-yl)pyrazine-2-carboxamide] | 1.21 | 1.14 | 1.31 | 1.21 | 1.25 | 1.23 | 1.48 | 1.66 | 1.58 | – | – | – | – | – | – |
| – | – | – | – | – | CN1CCN([C@@H]2CCCN(c3cnc(C(N)=O)c(Nc4ccc(C5CCN(C[C@H]6CC[C@H](Nc7cccc8c7C(=O)N(C7CCC(=O)NC7=O)C8=O)CC6)CC5)cc4)n3)C2)C1=O (some centres unmarked) [Compound 154] | 1.23 | 1.18 | 1.36 | 1.29 | 1.13 | 1.16 | 1.77 | 3.38 | 3.45 | – | – | – | – | – | – |
| – | – | – | – | – | Nc1cccc2c1CN(C1CCC(=O)NC1=O)C2=O (centres unmarked) [Lenalidomide, lenalidomide, reference compound] | 1.26 | 1.20 | 1.73 | 1.49 | 1.93 | 1.81 | 1.63 | 4.48 | 8.67 | increase expression | induce IL-2 secretion | – | – | – | – |
| – | 2 | – | – | – | CN1CCN([C@@H]2CCCN(c3cnc(C(N)=O)c(Nc4ccc(C5CCN(CC6CCN(c7ccc8c(c7)C(=O)N(C7CCC(=O)NC7=O)C8=O)CC6)CC5)cc4)n3)C2)C1=O (some centres unmarked) [Compound 51] | 0.86 | 0.91 | 0.62 | 0.62 | 0.38 | 0.39 | 1.19 | 1.99 | 2.12 | – | – | 0.32 | 20 | 1.95 | 49 |
| – | – | 68% and 76% | 38 | – | CN1CCN([C@@H]2CCCN(c3cnc(C(N)=O)c(Nc4ccc(N5CCN(C[C@@H]6[C@H]7CN(c8ccc9c(c8)C(=O)N(C8CCC(=O)NC8=O)C9=O)C[C@@H]67)CC5)cc4)n3)C2)C1=O (some centres unmarked) [Compound 38] | 1.05 | 1.02 | 1.02 | 0.99 | 0.86 | 0.90 | 1.21 | 1.58 | 1.81 | – | – | – | – | – | – |
| – | – | – | – | 74 | CN1CCN([C@H]2CCCN(c3cnc(C(N)=O)c(Nc4cnn(C5CCN(CC6CN(c7ccc8c(c7)C(=O)N(C7CCC(=O)NC7=O)C8=O)C6)CC5)c4)n3)C2)C1=O (some centres unmarked) [Compound 78] | 0.99 | 1.00 | 0.73 | 0.66 | 0.44 | 0.43 | 1.00 | 1.17 | 1.20 | – | – | 9.04 | 41 | 7.19 | 37 |
